# Tests used:
# CDK9/Cyclin K = CDK9/Cyclin K (Homo sapiens, UniProt P50750); assay: biochemical
# CDK2/Cyclin A2 = CDK2/Cyclin A2 (Homo sapiens, UniProt P24941); design: species or system Sf9
# [1] = Cytotoxicity against human L02 cells assessed as inhibition of cell proliferation measured after 48 hrs by CCK8 assay; format: cell-based
# Jurkat = assay: Antiproliferative activity against human Jurkat cells assessed as inhibition of cell proliferation measured after 48 hrs by CCK8 assay; format: functional, cell-based
# MCF7 = assay: Antiproliferative activity against human MCF7 cells assessed as inhibition of cell proliferation measured after 48 hrs by CCK8 assay; format: functional, cell-based; conditions: MCF7, 48 h
# MDA-MB-231 = assay: Antiproliferative activity against human MDA-MB-231 cells assessed as inhibition of cell proliferation measured after 48 hrs by CCK8 assay; format: functional, cell-based; conditions: MDA-MB-231, 48 h
# CDK6/cyclin D3 = CDK6/cyclin D3 (Homo sapiens, UniProt Q00534); design: species or system Sf9
# CDK6/cyclin D3, sequence (P30281 whole entry): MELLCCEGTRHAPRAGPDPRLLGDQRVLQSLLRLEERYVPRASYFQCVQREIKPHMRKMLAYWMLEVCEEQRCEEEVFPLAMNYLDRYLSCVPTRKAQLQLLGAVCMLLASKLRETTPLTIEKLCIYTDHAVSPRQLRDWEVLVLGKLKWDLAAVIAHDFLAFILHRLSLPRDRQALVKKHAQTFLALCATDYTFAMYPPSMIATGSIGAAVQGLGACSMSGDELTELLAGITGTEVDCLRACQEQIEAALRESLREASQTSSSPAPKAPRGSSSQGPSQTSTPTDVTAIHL
# CDK6/cyclin D3, sequence (Q00534 whole entry): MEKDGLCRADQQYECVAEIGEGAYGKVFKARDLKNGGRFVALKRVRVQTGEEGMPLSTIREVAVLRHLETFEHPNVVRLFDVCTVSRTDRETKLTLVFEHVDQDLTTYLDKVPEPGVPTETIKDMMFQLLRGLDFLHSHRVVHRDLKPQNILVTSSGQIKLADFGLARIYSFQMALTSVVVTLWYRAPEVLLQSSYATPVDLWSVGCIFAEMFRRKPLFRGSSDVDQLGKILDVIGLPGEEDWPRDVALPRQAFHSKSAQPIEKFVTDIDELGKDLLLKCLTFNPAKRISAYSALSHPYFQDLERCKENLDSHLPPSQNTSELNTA
# CDK9/Cyclin K, sequence (P50750 whole entry): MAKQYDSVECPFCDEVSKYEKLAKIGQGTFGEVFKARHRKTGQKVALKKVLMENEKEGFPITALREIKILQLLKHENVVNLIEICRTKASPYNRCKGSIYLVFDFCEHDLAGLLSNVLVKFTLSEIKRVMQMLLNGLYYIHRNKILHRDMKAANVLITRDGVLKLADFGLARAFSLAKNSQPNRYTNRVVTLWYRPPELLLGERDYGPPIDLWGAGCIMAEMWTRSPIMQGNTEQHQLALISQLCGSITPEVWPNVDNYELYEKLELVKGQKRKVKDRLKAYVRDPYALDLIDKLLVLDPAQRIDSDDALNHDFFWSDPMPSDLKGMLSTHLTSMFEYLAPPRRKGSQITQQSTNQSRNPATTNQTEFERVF
# CDK9/Cyclin K, sequence (O75909 whole entry, further chain): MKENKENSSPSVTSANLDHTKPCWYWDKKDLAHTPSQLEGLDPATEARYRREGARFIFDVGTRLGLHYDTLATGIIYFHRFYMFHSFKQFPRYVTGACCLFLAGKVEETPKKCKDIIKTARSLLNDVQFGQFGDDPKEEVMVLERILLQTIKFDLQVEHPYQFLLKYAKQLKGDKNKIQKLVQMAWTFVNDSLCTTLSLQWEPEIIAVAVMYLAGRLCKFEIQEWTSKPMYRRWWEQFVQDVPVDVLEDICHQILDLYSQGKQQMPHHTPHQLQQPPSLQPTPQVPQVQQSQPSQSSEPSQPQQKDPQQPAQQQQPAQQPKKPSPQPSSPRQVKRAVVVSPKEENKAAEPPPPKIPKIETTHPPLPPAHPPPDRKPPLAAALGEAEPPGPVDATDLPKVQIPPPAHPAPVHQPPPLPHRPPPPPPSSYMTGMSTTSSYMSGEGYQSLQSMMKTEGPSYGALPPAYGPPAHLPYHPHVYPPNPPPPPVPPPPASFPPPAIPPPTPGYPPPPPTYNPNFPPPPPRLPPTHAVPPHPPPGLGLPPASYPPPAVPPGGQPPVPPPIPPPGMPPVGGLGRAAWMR
Compound,IC50 (CDK9/Cyclin K),IC50 (CDK2/Cyclin A2),GI50 at 48 h [1],GI50 (Jurkat),GI50 (MCF7),GI50 (MDA-MB-231),IC50 (CDK6/cyclin D3)
CN1CCN(c2ccc(Nc3ncc(Cl)c(NCc4ccc(F)cc4)n3)nc2)CC1,> 10 µM,> 10 µM,39.7 µM,> 100 µM,19.3 µM,> 100 µM,> 10 µM
CN1CCN(c2ccc(Nc3ncc(Cl)c(NCCc4ccccc4)n3)nc2)CC1,> 10 µM,> 10 µM,14.9 µM,> 100 µM,11.8 µM,> 100 µM,> 10 µM
Cc1ccc(Nc2nc(Nc3ccc(N4CCN(C)CC4)cn3)ncc2Cl)cc1,1.45 µM,> 10 µM,13.9 µM,30.9 µM,11.4 µM,4.03 µM,0.088 µM
Cc1ccccc1Nc1nc(NCc2ccncc2)ncc1Cl,> 10 µM,> 10 µM,> 100 µM,> 100 µM,> 100 µM,> 100 µM,> 10 µM
CCN1CCN(c2ccc(Nc3ncc(Cl)c(Nc4ccccc4C)n3)nc2)CC1,> 10 µM,9.18 µM,> 100 µM,> 100 µM,> 100 µM,> 100 µM,> 10 µM
Cc1ccccc1Nc1nc(Nc2cc(Cl)ccn2)ncc1Cl,> 10 µM,> 10 µM,41.5 µM,39.6 µM,> 100 µM,52.4 µM,> 10 µM
Cc1ccccc1Nc1nc(Nc2ccc(N3CCCN(C)CC3)cc2)ncc1Cl,0.88 µM,1.59 µM,1.24 µM,11.3 µM,4.29 µM,6.39 µM,0.536 µM
CCN1CCN(c2ccc(Nc3ncc(Cl)c(Nc4ccccc4C)n3)cc2)CC1,0.751 µM,0.718 µM,0.97 µM,2.06 µM,3.16 µM,3.04 µM,0.114 µM
CN1CCN(c2ccc(Nc3ncc(Cl)c(Nc4ccc(C(C)(C)C)cc4)n3)nc2)CC1,6.82 µM,> 10 µM,6.07 µM,–,12.6 µM,16.2 µM,0.735 µM
Cc1ccccc1Nc1nc(Nc2ccncc2)ncc1Cl,> 10 µM,6.23 µM,> 100 µM,> 100 µM,98.5 µM,68.1 µM,> 10 µM
CN1CCN(c2ccc(Nc3ncc(Cl)c(NCc4ccc(C(F)(F)F)cc4)n3)nc2)CC1,> 10 µM,> 10 µM,26.2 µM,7.96 µM,28.4 µM,19.1 µM,8.93 µM
Cc1ccccc1Nc1nc(NCCc2cccnc2)ncc1Cl,> 10 µM,> 10 µM,> 100 µM,> 100 µM,> 100 µM,> 100 µM,> 10 µM
COc1ccc(CNc2nc(Nc3ccc(N4CCN(C)CC4)cn3)ncc2Cl)cc1,> 10 µM,> 10 µM,12.9 µM,12.9 µM,17.3 µM,14.9 µM,0.64 µM
COc1ccc(Nc2nc(Nc3ccc(N4CCN(C)CC4)cn3)ncc2Cl)cc1,1.38 µM,6.11 µM,3.15 µM,11.2 µM,8.45 µM,8.02 µM,0.606 µM
COc1cccc(Nc2nc(Nc3ccc(N4CCN(C)CC4)cn3)ncc2Cl)c1,6.2 µM,0.701 µM,3.47 µM,15.8 µM,7.54 µM,8.51 µM,0.103 µM
Cc1ccccc1Nc1nc(NCc2ccco2)ncc1Cl,> 10 µM,> 10 µM,> 100 µM,> 100 µM,> 100 µM,> 100 µM,> 10 µM
Cc1ccccc1Nc1nc(Nc2ccccc2)ncc1Cl,> 10 µM,> 10 µM,> 100 µM,> 100 µM,> 100 µM,> 100 µM,> 10 µM
COc1cccc(CNc2nc(Nc3ccc(N4CCN(C)CC4)cn3)ncc2Cl)c1,3.29 µM,> 10 µM,16.2 µM,73.4 µM,19.5 µM,20.3 µM,1.6 µM
CC(C)c1cccc(Nc2nc(Nc3ccc(N4CCN(C)CC4)cn3)ncc2Cl)c1,0.654 µM,> 10 µM,12.5 µM,12.2 µM,8.64 µM,5.59 µM,0.452 µM
Cc1ccccc1Nc1nc(NC2CCCCC2)ncc1Cl,> 10 µM,> 10 µM,> 100 µM,> 100 µM,> 100 µM,> 100 µM,> 10 µM

Compound,IC50 (CDK9/Cyclin K),IC50 (CDK2/Cyclin A2),GI50 at 48 h [1],GI50 (Jurkat),GI50 (MCF7),GI50 (MDA-MB-231),IC50 (CDK6/cyclin D3)
Cc1ccccc1Nc1nc(Nc2ccc(N3CCCCC3)cc2)ncc1Cl,> 10 µM,3.69 µM,5.69 µM,> 100 µM,> 100 µM,19.9 µM,> 10 µM
CN1CCN(c2ccc(Nc3ncc(Cl)c(NCc4ccccc4)n3)nc2)CC1,> 10 µM,> 10 µM,20.3 µM,> 100 µM,17.3 µM,24.8 µM,> 10 µM
Cc1ccccc1Nc1nc(Nc2ccc(N3CCCCC3)cn2)ncc1Cl,> 10 µM,4.84 µM,42.4 µM,> 100 µM,21.4 µM,> 100 µM,> 10 µM
Cc1ccccc1Nc1nc(Nc2ccc(N3CCOCC3)cn2)ncc1Cl,0.051 µM,> 10 µM,1.99 µM,14.1 µM,6.63 µM,5.98 µM,0.046 µM
Cc1ccccc1Nc1nc(Nc2ccc(N3CCN(C(=O)OC(C)(C)C)CC3)cc2)ncc1Cl,0.176 µM,0.192 µM,1.75 µM,5.12 µM,2.25 µM,3.26 µM,0.116 µM
Cc1ccccc1Nc1nc(Nc2cccnc2)ncc1Cl,3.43 µM,0.03 µM,22.9 µM,38.6 µM,56.5 µM,41.2 µM,6.65 µM
Cc1ccccc1Nc1nc(NC2CC2)ncc1Cl,> 10 µM,> 10 µM,> 100 µM,> 100 µM,> 100 µM,> 100 µM,> 10 µM
COC[C@@H](C)N[C@H]1CC[C@H](Nc2cc(-c3cccc(NCC4(C#N)CCOCC4)n3)c(Cl)cn2)CC1,0.002 µM,3.46 µM,28.3 µM,< 0.16 µM,43.4 µM,< 0.16 µM,> 10 µM
Cc1ccccc1Nc1nc(Nc2ccc(N3CCN(C)CC3)cc2)ncc1Cl,0.434 µM,1.19 µM,6.51 µM,13.7 µM,20.6 µM,7.02 µM,0.143 µM
Cc1ccccc1Nc1nc(NCCc2ccccn2)ncc1Cl,> 10 µM,> 10 µM,> 100 µM,> 100 µM,> 100 µM,> 100 µM,> 10 µM
CC(C)c1ccc(Nc2nc(Nc3ccc(N4CCN(C)CC4)cn3)ncc2Cl)cc1,9.17 µM,> 10 µM,13.7 µM,7.53 µM,1.88 µM,7.02 µM,0.126 µM
CN1CCN(c2ccc(Nc3ncc(Cl)c(NCc4ccco4)n3)nc2)CC1,> 10 µM,> 10 µM,45.7 µM,> 100 µM,21.3 µM,11 µM,0.279 µM
CN1CCN(c2ccc(Nc3ncc(Cl)c(Nc4ccccc4)n3)nc2)CC1,9.85 µM,> 10 µM,7.99 µM,> 100 µM,51.8 µM,37.4 µM,0.113 µM
Cc1ccc(Nc2ncc(Cl)c(Nc3ccccc3C)n2)cc1,> 10 µM,> 10 µM,> 100 µM,> 100 µM,> 100 µM,> 100 µM,> 10 µM
Cc1cccc(Nc2nc(Nc3ccc(N4CCN(C)CC4)cn3)ncc2Cl)c1,0.431 µM,> 10 µM,6.08 µM,15.3 µM,7.16 µM,5.27 µM,0.08 µM
COc1ccc(CCNc2nc(Nc3ccc(N4CCN(C)CC4)cn3)ncc2Cl)cc1,> 10 µM,> 10 µM,> 100 µM,> 100 µM,38.4 µM,> 100 µM,> 10 µM
Cc1ccccc1Nc1nc(Nc2ccccn2)ncc1Cl,8.11 to 8.12 µM,0.643 µM,6.15 µM,20.1 µM,31.4 µM,11.2 µM,2.76 µM
CCc1ccc(Nc2nc(Nc3ccc(N4CCN(C)CC4)cn3)ncc2Cl)cc1,6.87 µM,> 10 µM,12.1 µM,11.1 µM,8.23 µM,5.56 µM,0.281 µM
Cc1ccc(CNc2nc(Nc3ccc(N4CCN(C)CC4)cn3)ncc2Cl)cc1,> 10 µM,> 10 µM,> 100 µM,12.7 µM,38.1 µM,18.6 µM,1.04 µM
CC(C)c1ccccc1Nc1nc(Nc2ccc(N3CCN(C)CC3)cn2)ncc1Cl,2.65 µM,> 10 µM,–,5.14 µM,4.36 µM,4.09 µM,0.033 µM
